As usually defined, the inhibition is the change of the read-out against control, counted positive when it falls.

Assay [1] has as its target T1, human recombinant histamine H1 receptor (Homo sapiens, UniProt P35367).
T1 construct: expressed in transfected cells; host or cells: CHO cells
Nature of the assay: Histamine H1 radioligand binding ([3H]Pyrilamine). Conditions: compound at 1 μM; inhibition of specific [3H]Pyrilamine binding; read-out: Histamine Binding (1 μM) H1, Percentage Inhibition. As to the method:
To evaluate in radioligand binding assays the activity of compounds of the invention, human recombinant histamine H1 receptor expressed in Chinese hamster ovary (CHO) cells (De Backer, M. D. et al., Biochem. Biophys. Res. Comm. 197(3):1601, 1993) in a modified Tris-HCl buffer (50 mM Tris-HCl, pH 7.4, 2 mM MgCl2, 100 mM NaCl, 250 mM Sucrose) was used. Compounds of the invention were incubated with 1.2 nM [^3H]Pyrilamine for 180 minutes at 25° C. Non-specific binding was estimated in the presence of 1 μM pyrilamine. Receptor proteins were filtered and washed, the filters were then counted to determine [^3H]Pyrilamine specifically bound. Compounds were screened at 1 μM or lower, using 1% DMSO as vehicle. Biochemical assay results are presented as the percent inhibition of specific binding in Table 2.

The target of assay [2] is T2, human recombinant histamine H2 receptor (Homo sapiens, UniProt P25021).
T2 construct: expressed in transfected cells; host or cells: CHO-K1 cells
The experiment in a line: Histamine H2 radioligand binding ([125I]Aminopotentidine). The following applies: compound at 1 μM; inhibition of specific [125I]Aminopotentidine binding; read-out: Histamine Binding (1 μM) H2, Percentage Inhibition. Here is the method:
To evaluate in radioligand binding assays the activity of compounds of the invention, human recombinant histamine H2 receptor expressed in Chinese hamster ovary (CHO) K1 cells (Ruat, M., Proc. Natl. Acad. Sci. USA. 87(5):1658, 1990) in a 50 mM Phosphate buffer, pH 7.4 was used. Compounds of the invention were incubated with 0.1 nM [^125I]Aminopotentidine for 120 minutes at 25° C. Non-specific binding was estimated in the presence of 3 μM Tiotidine. Receptor proteins were filtered and washed, the filters were then counted to determine [^125I]Aminopotentidine specifically bound. Compounds were screened at 1 μM or lower, using 1% DMSO as vehicle. Biochemical assay results are presented as the percent inhibition of specific binding in Table 2.

Assay [3] addresses T3, human recombinant adrenergic α1D receptor (Homo sapiens, UniProt P25100).
T3 construct: expressed in transfected cells; host or cells: HEK-293 cells
T3 sequence (P25100 1-572): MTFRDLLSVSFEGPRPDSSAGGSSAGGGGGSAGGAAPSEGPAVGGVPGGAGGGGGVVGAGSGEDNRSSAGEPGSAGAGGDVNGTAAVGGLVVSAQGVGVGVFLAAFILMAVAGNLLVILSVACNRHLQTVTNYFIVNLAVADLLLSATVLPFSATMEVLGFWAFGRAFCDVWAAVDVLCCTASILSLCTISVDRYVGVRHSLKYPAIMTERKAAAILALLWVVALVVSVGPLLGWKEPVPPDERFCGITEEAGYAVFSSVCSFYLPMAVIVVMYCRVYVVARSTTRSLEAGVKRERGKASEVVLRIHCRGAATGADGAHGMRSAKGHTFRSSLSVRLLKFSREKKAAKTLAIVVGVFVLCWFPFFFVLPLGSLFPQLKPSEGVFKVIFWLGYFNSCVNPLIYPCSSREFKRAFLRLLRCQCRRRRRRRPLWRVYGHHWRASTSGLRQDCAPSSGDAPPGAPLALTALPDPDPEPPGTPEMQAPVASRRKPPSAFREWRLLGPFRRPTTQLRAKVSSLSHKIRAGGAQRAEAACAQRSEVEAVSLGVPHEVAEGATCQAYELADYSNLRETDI
The experiment in a line: Adrenergic α1D radioligand binding ([3H]Prozosin). The following applies: 1 μM; read-out: Adrenergic α1D, inhibition of ligand binding (1 μM). As to the method:
To evaluate in radioligand binding assays the activity of compounds of the invention, human recombinant adrenergic α1D receptor expressed in human embryonic kidney (HEK-293) cells (Kenny, B. A. et al. Br. J. Pharmacol. 115(6):981, 1995) in a 50 mM Tris-HCl buffer, pH 7.4, was used. Compounds of invention were incubated with 0.6 nM [^3H]Prozosin for 60 minutes at 25° C. Non-specific binding was estimated in the presence of 10 μM phentolamine. Receptor proteins were filtered and washed, the filters were then counted to determine [^3H]Prozosin specifically bound. Compounds were screened at 1 μM or lower, using 1% DMSO as vehicle. Biochemical assay results are presented as the percent inhibition of specific binding in Table 3.

The target in assay [4] is T4, human recombinant adrenergic α2B receptor (Homo sapiens, UniProt P18089).
T4 construct: expressed in transfected cells; host or cells: CHO-K1 cells
T4 sequence (P18089 1-450): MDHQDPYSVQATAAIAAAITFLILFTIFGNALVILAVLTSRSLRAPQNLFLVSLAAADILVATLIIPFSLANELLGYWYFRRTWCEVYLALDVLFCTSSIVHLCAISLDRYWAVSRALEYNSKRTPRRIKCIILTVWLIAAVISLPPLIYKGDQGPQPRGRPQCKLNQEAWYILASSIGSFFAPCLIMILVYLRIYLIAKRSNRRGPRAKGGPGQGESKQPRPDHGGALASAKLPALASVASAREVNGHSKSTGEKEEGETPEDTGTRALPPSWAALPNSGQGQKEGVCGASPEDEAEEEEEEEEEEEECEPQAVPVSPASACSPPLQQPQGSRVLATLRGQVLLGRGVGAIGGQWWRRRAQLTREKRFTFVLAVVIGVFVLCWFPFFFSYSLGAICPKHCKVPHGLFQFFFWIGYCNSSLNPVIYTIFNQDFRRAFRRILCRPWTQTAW
The experiment in a line: Adrenergic α2B radioligand binding ([3H]Rauwolscine). Conditions: 1 μM; read-out: Adrenergic α2B, inhibition of ligand binding (1 μM). Here is the method:
To evaluate in radioligand binding assays the activity of compounds of the invention, human recombinant adrenergic α2B receptor expressed in Chinese hamster ovary (CHO-K1) cells (Uhlen S et al. Eur J. Pharmacol. 343(1):93, 1998) in a modified Tris-HCl buffer (50 mM Tris-HCl, pH 7.4, 12.5 mM MgCl2, 1 mM EDTA, 0.2% BSA) was used. Compounds of the invention were incubated with 2.5 nM [^3H]Rauwolscine for 60 minutes at 25° C. Non-specific binding was estimated in the presence of 10 μM Prozosin. Receptor proteins were filtered and washed, the filters were then counted to determine [^3H]Rauwolscine specifically bound. Compounds were screened at 1 μM or lower, using 1% DMSO as vehicle. Biochemical assay results are presented as the percent inhibition of specific binding in Table 3.

T2 sequence (P25021 whole entry): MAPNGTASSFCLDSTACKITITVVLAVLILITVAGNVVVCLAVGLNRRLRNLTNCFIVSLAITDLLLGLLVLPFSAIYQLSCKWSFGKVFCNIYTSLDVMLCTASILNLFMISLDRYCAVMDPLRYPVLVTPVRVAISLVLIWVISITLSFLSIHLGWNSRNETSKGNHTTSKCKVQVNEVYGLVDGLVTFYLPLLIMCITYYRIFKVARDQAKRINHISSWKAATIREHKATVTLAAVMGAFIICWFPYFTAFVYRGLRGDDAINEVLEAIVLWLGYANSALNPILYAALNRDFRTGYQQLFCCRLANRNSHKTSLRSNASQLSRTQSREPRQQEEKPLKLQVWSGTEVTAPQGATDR
T1 sequence (P35367 whole entry): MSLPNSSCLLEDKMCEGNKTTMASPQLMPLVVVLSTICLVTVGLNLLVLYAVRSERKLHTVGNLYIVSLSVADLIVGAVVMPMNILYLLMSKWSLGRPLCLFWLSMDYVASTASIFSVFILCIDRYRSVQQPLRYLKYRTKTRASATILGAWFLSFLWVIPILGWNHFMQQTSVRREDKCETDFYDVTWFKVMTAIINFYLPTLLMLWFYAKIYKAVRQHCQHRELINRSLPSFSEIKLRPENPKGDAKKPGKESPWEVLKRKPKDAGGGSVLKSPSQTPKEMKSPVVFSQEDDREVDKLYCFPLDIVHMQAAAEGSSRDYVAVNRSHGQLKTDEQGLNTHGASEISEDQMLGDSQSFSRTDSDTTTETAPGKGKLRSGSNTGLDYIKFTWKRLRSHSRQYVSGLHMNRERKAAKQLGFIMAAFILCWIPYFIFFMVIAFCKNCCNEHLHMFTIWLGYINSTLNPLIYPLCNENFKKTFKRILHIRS

As for `Cc1ccc(CCn2c3c(c4cc(Cl)ccc42)C2CCC(C3)N2C)cc1` (centres unmarked) [Compound 61], the inhibition at 1 µM in assay [1] came to 98%; in assay [2], 52%; in assay [3], 80%; in assay [4], 96%.

With `CN1C2CCC1c1c(n(CCC(=O)N3CCNC(=O)C3)c3ccc(Cl)cc13)C2` (centres unmarked) [Compound 3], the inhibition at 1 µM was 12% in assay [1], 2% in assay [2], 6% in assay [3] and -17% in assay [4].

For the molecule `Cc1ccc2c(c1)c1c(n2CCc2ccccc2)CC2CCCC1N2C` (centres unmarked) [Compound 56], the inhibition at 1 µM in assay [1] amounted to 86%; in assay [2], 16%; in assay [3] it was 65%; in assay [4], 100%.

In the case of `Cc1ccc2c(c1)c1c(n2CCc2cncc(Cl)c2)CC2CCC1N2C` (centres unmarked) [Compound 88], the inhibition at 1 µM turned out to be 95% in assay [1], 5% in assay [2], 73% in assay [3] and 104% in assay [4].

For the molecule `CN1C2CCC1c1c(n(CCC#N)c3ccc(Cl)cc13)C2` (centres unmarked) [Compound 107], the inhibition at 1 µM is 72% in assay [1], -4% in assay [2], 47% in assay [3] and 57% in assay [4].

As to `CN1C2CCC1c1c(n(CCCc3ccc(Cl)cc3)c3ccc(Cl)cc13)C2` (centres unmarked) [Compound 39], the inhibition at 1 µM in assay [1] was determined as 91%; in assay [2], 86%; in assay [3], 11%; in assay [4], 54%.

For the molecule `CN1C2CCC1c1c(n(CCCc3ccc(C(F)(F)F)nc3)c3ccc(Cl)cc13)C2` (centres unmarked) [Compound 37], the inhibition at 1 µM in assay [1] was found to be 78%; in assay [2], 7%; in assay [3], 12%; in assay [4] it was 51%.

Turning to `CN1C2CCC1c1c(n(CC(=O)N3CCOCC3)c3ccc(Cl)cc13)C2` (centres unmarked) [Compound 59, 2-(2-chloro-11-methyl-5,6,7,8,9,10-Hexahydro-7,10-iminocyclohept[b]indol-5-yl)-1-morpholinoethanone], the inhibition at 1 µM in assay [1] was found to be 7%; in assay [2] it was 15%; in assay [3], 2%; in assay [4], 20%.

Consider `Cc1ccc2c(c1)c1c(n2CCc2cccnc2)CC2CCC1N2C` (centres unmarked) [Compound 86], for which the inhibition at 1 µM in assay [1] came out at 99%; in assay [2], 26%; in assay [3], 87%; in assay [4], 106%.

`CN1C2CCC1c1c(n(CC(=O)c3ccccc3)c3ccc(Cl)cc13)C2` (centres unmarked) [Compound 110]: the inhibition at 1 µM in assay [1] came out at 36%; in assay [2] it was 27%; in assay [3], 40%; in assay [4], 92%.

Take `Cc1cncc(CCn2c3c(c4cc(C)ccc42)C2CCC(C3)N2C)c1` (centres unmarked) [Compound 90]: the inhibition at 1 µM in assay [1] is 93%; in assay [2], -1%; in assay [3] it was 40%; in assay [4], 75%.

For the molecule `CN1C2CCC1c1c(n(CCC(=O)N3CCSCC3)c3ccc(Cl)cc13)C2` (centres unmarked) [Compound 12], the inhibition at 1 µM in assay [1] was 29%; in assay [2] it was -2%; in assay [3] it was 3%; in assay [4], 10%.

Turning to `CN1C2CCC1c1c(n(CCc3cccnc3)c3ccc(Cl)cc13)C2` (centres unmarked) [Compound 80], the inhibition at 1 µM is 94% in assay [1], -3% in assay [2], 54% in assay [3] and 95% in assay [4].

With `C/C(=C/n1c2c(c3ccccc31)[C@@H]1CC[C@H](C2)N1C)c1ccc(F)cc1` [Compound 121], the inhibition at 1 µM amounted to 17% in assay [1], 21% in assay [2], 80% in assay [3] and 100% in assay [4].

Turning to `Cc1ccc2c(c1)c1c(n2CCc2cnc(C)nc2)CC2CCC1N2C` (centres unmarked) [Compound 81], the inhibition at 1 µM was 51% in assay [1], -9% in assay [2], 42% in assay [3] and 40% in assay [4].

For the molecule `CN1C2CCC1c1c(n(CCC(=O)N3CCCC3)c3ccc(Cl)cc13)C2` (centres unmarked) [Compound 5], the inhibition at 1 µM in assay [1] is 32%; in assay [2], -9%; in assay [3], 21%; in assay [4], 30%.

For `CN1C2CCC1c1c(n(CC(=O)N3CCCC3)c3ccc(Cl)cc13)C2` (centres unmarked) [Compound 60], the inhibition at 1 µM came out at 21% in assay [1], 3% in assay [2], 1% in assay [3] and 5% in assay [4].

For `CN1C2CCC1c1c(n(CCC(=O)N3CC[S+]([O-])CC3)c3ccc(Cl)cc13)C2` (centres unmarked) [Compound 10], the inhibition at 1 µM is 7% in assay [1], 1% in assay [2], 7% in assay [3] and 7% in assay [4].

Take `CN1C2CCC1c1c(n(CCc3ccc(Cl)cc3)c3ccc(F)cc13)C2` (centres unmarked) [Compound 33]: the inhibition at 1 µM in assay [1] was found to be 86%; in assay [2] it was 18%; in assay [3] it was 36%; in assay [4] it was 100%.

Consider `CN1[C@@H]2CC[C@H]1c1c(n(CCc3ccc(F)cc3)c3ccc(F)cc13)C2` [Compound 94, (+)-(7S,10R)-2-Fluoro-5-(4-fluorophenethyl)-11-methyl-5,6,7,8,9,10-hexahydro-7,10-iminocyclohept[b]indole], for which the inhibition at 1 µM is 92% in assay [1], 4% in assay [2], 77% in assay [3] and 102% in assay [4].

The record behind these values is US8546381B2, “Bridged heterocyclic compounds and methods of use” (Medivation Technologies, Inc., priority 2008, dated 2013).
